# “Also recorded” adds a separate entry of the source. Like-named read-outs stand apart in the source and are kept apart here. Starred links: 1 amine or outer side, 2 acyl side, 3 side chain; linkers in the order of their positions; H or OH if unused. Positions of bridges follow the written chain, without caps; N, C: chain ends. Non-standard residues stand in square brackets, D forms with d. Residues, ends and D or L forms follow the SMILES beside them. ξ: configuration not given here. Pro(cis-4-Trz(4-CH2CH2Ph)) = O=C(O)[C@@H]1C[C@H](n2cc(CCc3ccccc3)nn2)CN1; X4 = O=C([C@@H]1C[C@H](n2cc(C3C4CC5CC(C4)CC3C5)nn2)CN1[*:1])[*:2]; Ile(3ξ) = CCC(C)[C@H](N)C(=O)O; Orn = NCCC[C@H](N)C(=O)O; Dab = NCC[C@H](N)C(=O)O; ξD = NC(CC(=O)O)C(=O)O
# How the values were obtained:
# HIV-1 gp120 = target: T1, HIV-1 gp120 (Human immunodeficiency virus type 1 group M subtype B, UniProt P35961); format: binding
# T1 construct: Expression and Purification of Wild-Type gp120YU-2; made in house; host or cells: HEK 293F
# Method: SPR competition binding assays were used to assess the structural elements required for cyclic hexapeptide binding to gp120. […] In an attempt to restore the lost contact, the length of the two linkers was changed (Linker 1 and Linker 2 in FIG. 12).
# SPR experiments were performed on a Biacore 3000 optical biosensor (GE Healthcare). All experiments were carried out at 25° C. using standard PBS buffer pH=7.4 with 0.005% surfactant Tween. A CM5 sensor chip was derivatized by standard 1-ethyl-3-(3-dimethylaminopropyl) carbodiimide (EDC)/N-hydroxysuccinimide (NHS) chemistry, and coupling was done through ligand amine groups. Antibody 2B6R (α-human IL5R) was immobilized for negative control surfaces. For competition experiments, soluble four domain CD4 and 17b antibody were immobilized on the surface through standard EDC/NHS chemistry. For kinetic analyses, typically 2000-3000 RUs of protein reagents were immobilized on SPR chips, and analytes were passed over the surface at 50-100 μL/min. Surface regeneration was achieved by a 5 μL injection of 10 mM HCl solution at 100 μL/min. […] Regeneration of the surface was achieved by a single 10 second pulse of 1.3 M NaCl/35 mM NaOH and single 5-second pulse of 10 mM glycine, pH 1.5, for sCD4 and mAb 17b, respectively. All analyses were performed in triplicate.
# The inhibition curve was converted into a calibration curve by the use of a fitting function. The fitting was done using the 4-parameter Equation (1) from BIAevaluation software,
# The cyclic peptides of the invention were tested against HIV-1 gp120 by SPR competition assays as described elsewhere herein. A mixture of the cyclic peptide/gp120 solutions was passed over SPR chip immobilized with CD4 and 17b separately. The competition assay evaluated the ability of each peptide to inhibit the binding between gp120 and both soluble CD4 and 17b antibody, a surrogate for co-receptor.
# HIV-1 Bal.01 pseudovirus = test: Inhibition of HIV-1 infection against Bal.01 (HOS.T4.R5 cells, luciferase); format: cell-based
# HIV-1 JR-FL pseudovirus = test: Inhibition of HIV-1 infection against JR-FL (HOS.T4.R5 cells, luciferase); format: cell-based
Molecule,"Dual receptor site (CD4 and 17b) inhibition of gp120, in words (HIV-1 gp120; SPR competition)",also measured
"(3S,6S,15S,18S,21S,25S,26aS)-3-((1H-indol-3-yl)methyl)-18-(2-amino-2-oxoethyl)-15-((2S,3S)-2-amino-3-methylpentanamido)-21-((S)-sec-butyl)-25-(4-ferrocenyl-1H-1,2,3-triazol-1-yl)-1,4,12,16,19,22-hexaoxohexacosahydropyrrolo[2,1-f][1,4,7,10,13,19]hexaazacyclotetracosine-6-carboxamide [AAR024b]",enhanced dual receptor site antagonizing activities; also recorded: dual inhibitors,"Infection inhibition against Bal.01, in words (HIV-1 Bal.01 pseudovirus): inhibiting activity; Infection inhibition against JR-FL, in words (HIV-1 JR-FL pseudovirus): inhibiting activity"
"(3S,6S,14S,17S,20S,24S,25aS)-3-((1H-indol-3-yl)methyl)-14-amino-17-(2-amino-2-oxoethyl)-20-cyclopropyl-24-(4-ferrocenyl-1H-1,2,3-triazol-1-yl)-1,4,12,15,18,21-hexaoxotetracosahydro-1H-pyrrolo[2,1-f][1,4,7,10,13,18]hexaazacyclotricosine-6-carboxamide [AAR042]",dual inhibitors,–
"CCC(C)[C@@H]1NC(=O)[C@H](CC(N)=O)NC(=O)[C@@H](N)CC(=O)NCCCC[C@@H](C(N)=O)NC(=O)[C@H](Cc2c[nH]c3ccccc23)NC(=O)[C@@H]2C[C@H](n3cc(C4C5CC6CC(C5)CC4C6)nn3)CN2C1=O (stereo partly drawn) [AAR029F, (3S,6S,14S,17S,20S,24S,25aS)-3-((1H-indol-3-yl)methyl)-24-(4-((1R,3S,5S,7S)-adamantan-2-yl)-1H-1,2,3-triazol-1-yl)-14-amino-17-(2-amino-2-oxoethyl)-20-(sec-butyl)-1,4,12,15,18,21-hexaoxotetracosahydro-1H-pyrrolo[2,1-f][1,4,7,10,13,18]hexaazacyclotricosine-6-carboxamide] (H-DN[Ile(3ξ)][X4]WK-NH2; lactam 1-6)",dual inhibitors,–
"(3S,6S,14S,17S,20S,24S,25aS)-3-((1H-indol-3-yl)methyl)-14-amino-17-(2-amino-2-oxoethyl)-20-butyl-24-(4-ferrocenyl-1H-1,2,3-triazol-1-yl)-1,4,12,15,18,21-hexaoxotetracosahydro-1H-pyrrolo[2,1-f][1,4,7,10,13,18]hexaazacyclotricosine-6-carboxamide [AAR036]",dual inhibitors,–
"CC[C@H](C)[C@@H]1NC(=O)[C@H](CC(N)=O)NC(=O)[C@H](CC(N)=O)NC(=O)[C@@H](N)CCC(=O)NCCCC[C@@H](C(N)=O)NC(=O)[C@H](Cc2c[nH]c3ccccc23)NC(=O)[C@@H]2C[C@H](n3cc(CCc4ccccc4)nn3)CN2C1=O [AAR026, 2,2′-((3S,6S,15S,18S,21S,24S,28S,29aS)-3-((1H-indol-3-yl)methyl)-15-amino-24-((S)-sec-butyl)-6-carbamoyl-1,4,12,16,19,22,25-heptaoxo-28-(4-phenethyl-1H-1,2,3-triazol-1-yl)octacosahydro-1H-pyrrolo[2,1-f][1,4,7,10,13,16,22]heptaazacycloheptacosine-18,21-diyl)diacetamide] (H-ENNI[Pro(cis-4-Trz(4-CH2CH2Ph))]WK-NH2; lactam 1-7)",retained the dual receptor site inhibitory signature of linear PTs; also recorded: dual inhibitors,–
"(3S,6S,14S,17S,20S,24S,25aS)-14-amino-17-(2-amino-2-oxoethyl)-3-(benzo[b]thiophen-3-ylmethyl)-20-(sec-butyl)-24-(4ferocenyl-1H-1,2,3-triazol-1-yl)-1,4,12,15,18,21-hexaoxotetracosahydro-1H-pyrrolo[2,1-f][1,4,7,10,13,18]hexaazacyclotricosine-6-carboxamide [AAR029E]",–,"Dual receptor site (CD4 and 17b) inhibition of gp120, in words (HIV-1 gp120): dual inhibitors; Infection inhibition against Bal.01, in words (HIV-1 Bal.01 pseudovirus): inhibiting activity"
"(3S,6S,14S,17S,20S,24S,25aS)-3-((1H-indol-3-yl)methyl)-14-amino-17-(2-amino-2-oxoethyl)-20-cyclohexyl-24-(4-ferrocenyl-1H-1,2,3-triazol-1-yl)-1,4,12,15,18,21-hexaoxotetracosahydro-1H-pyrrolo[2,1-f][1,4,7,10,13,18]hexaazacyclotricosine-6-carboxamide [AAR029b-Chg]",–,"Infection inhibition against Bal.01, in words (HIV-1 Bal.01 pseudovirus): inhibiting activity"
"(3S,6S,12S,15S,19S,20aS)-3-((1H-indol-3-yl)methyl)-12-amino-15-((S)-sec-butyl)-19-(4-ferrocenyl-1H-1,2,3-triazol-1-yl)-1,4,10,13,16-pentaoxoicosahydropyrrolo [1,2-d][1,4,7,10,14]pentaazacyclooctadecine-6-carboxamide [AAR040]",dual inhibitors,–
"CC[C@H](C)[C@@H]1NC(=O)[C@H](CC(N)=O)NC(=O)C(N)CC(=O)NCC[C@@H](C(N)=O)NC(=O)[C@H](Cc2c[nH]c3ccccc23)NC(=O)[C@@H]2C[C@H](n3cc(CCc4ccccc4)nn3)CN2C1=O (stereo partly drawn) [AAR032, (3S,6S,15S,18S,22S,23aS)-3-((1H-indol-3-yl)methyl)-12-amino-15-(2-amino-2-oxoethyl)-18-((S)-sec-butyl)-1,4,10,13,16,19-hexaoxo-22-(4-phenethyl-1H-1,2,3-triazol-1-yl)docosahydro-1H-pyrrolo[1,2-g][1,4,7,10,13,17]hexaazacyclohenicosine-6-carboxamide] (H-[ξD]NI[Pro(cis-4-Trz(4-CH2CH2Ph))]W[Dab]-NH2; lactam 1-6)",dual inhibitors,fold improvement vs AAR031 (HIV-1 gp120; two-carbon Linker 1 (Dab)): ~10 fold
"CC[C@H](C)[C@@H]1NC(=O)[C@H](CC(N)=O)NC(=O)[C@@H](N)CCC(=O)NCC[C@@H](C(N)=O)NC(=O)[C@H](Cc2c[nH]c3ccccc23)NC(=O)[C@@H]2C[C@H](n3cc(CCc4ccccc4)nn3)CN2C1=O [AAR030, (3S,6S,13S,16S,19S,23S,24aS)-3-((1H-indol-3-yl)methyl)-13-amino-16-(2-amino-2-oxoethyl)-19-((S)-sec-butyl)-1,4,10,14,17,20-hexaoxo-23-(4-phenethyl-1H-1,2,3-triazol-1-yl)tetracosahydropyrrolo[1,2-g][1,4,7,10,13,17]hexaazacyclodocosine-6-carboxamide] (H-ENI[Pro(cis-4-Trz(4-CH2CH2Ph))]W[Dab]-NH2; lactam 1-6)",inactive,–
"CC[C@H](C)[C@@H]1NC(=O)[C@H](CC(N)=O)NC(=O)[C@@H](N)CC(=O)NCCC[C@@H](C(N)=O)NC(=O)[C@H](Cc2c[nH]c3ccccc23)NC(=O)[C@@H]2C[C@H](n3cc(CCc4ccccc4)nn3)CN2C1=O [AAR031, (3S,6S,13S,16S,19S,23S,24aS)-3-((1H-indol-3-yl)methyl)-13-amino-16-(2-amino-2-oxoethyl)-19-((S)-sec-butyl)-1,4,11,14,17,20-hexaoxo-23-(4-phenethyl-1H-1,2,3-triazol-1-yl)tetracosahydropyrrolo[2,1-f][1,4,7,10,13,18]hexaazacyclodocosine-6-carboxamide] (H-DNI[Pro(cis-4-Trz(4-CH2CH2Ph))]W[Orn]-NH2; lactam 1-6)",dual inhibitors,IC50 value in words (HIV-1 gp120; SPR competition): micro molar

# From patent publication US10251931B2, “Cyclic peptides and methods using same” (priority 2014, dated 2019)
